Test results taken from US20250154144A1 (CHILDREN'S HOSPITAL MEDICAL CENTER, priority 2021, published 2025).
Where two headings read alike, the source gives them in different places. One block for each compound: values may come before it.

Key:
[1] = tested on: MOLM14 D835Y cells; assay: cells; assay type: cell-based; settings: 48 hours, Cell Titer Glo, read-out: MOLM14 D835Y IC50
[2] = tested on: MOLM14 F691L cells; assay: cells; assay type: cell-based; settings: read-out: MOLM14 F691L IC50
[3] = molecular target: T1, FLT3 (Homo sapiens, UniProt P36888); assay: RBC HotSpot Kinase Assay, FLT3
T1 sequence (P36888 610-943 limits assumed): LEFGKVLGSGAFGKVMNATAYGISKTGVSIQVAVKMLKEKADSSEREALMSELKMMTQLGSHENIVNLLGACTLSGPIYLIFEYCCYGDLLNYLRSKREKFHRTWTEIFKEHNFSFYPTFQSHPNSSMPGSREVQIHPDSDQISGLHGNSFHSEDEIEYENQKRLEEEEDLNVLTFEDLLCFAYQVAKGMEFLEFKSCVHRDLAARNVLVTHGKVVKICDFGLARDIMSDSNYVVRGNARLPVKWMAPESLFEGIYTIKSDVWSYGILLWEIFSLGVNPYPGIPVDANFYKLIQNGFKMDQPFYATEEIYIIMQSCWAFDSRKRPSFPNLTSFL

[4] = molecular target: IRAK1 (Homo sapiens, UniProt P51617); assay: RBC HotSpot Kinase Assay, IRAK1; settings: IRAK1 IC50
Chain of IRAK1 (P51617 whole entry): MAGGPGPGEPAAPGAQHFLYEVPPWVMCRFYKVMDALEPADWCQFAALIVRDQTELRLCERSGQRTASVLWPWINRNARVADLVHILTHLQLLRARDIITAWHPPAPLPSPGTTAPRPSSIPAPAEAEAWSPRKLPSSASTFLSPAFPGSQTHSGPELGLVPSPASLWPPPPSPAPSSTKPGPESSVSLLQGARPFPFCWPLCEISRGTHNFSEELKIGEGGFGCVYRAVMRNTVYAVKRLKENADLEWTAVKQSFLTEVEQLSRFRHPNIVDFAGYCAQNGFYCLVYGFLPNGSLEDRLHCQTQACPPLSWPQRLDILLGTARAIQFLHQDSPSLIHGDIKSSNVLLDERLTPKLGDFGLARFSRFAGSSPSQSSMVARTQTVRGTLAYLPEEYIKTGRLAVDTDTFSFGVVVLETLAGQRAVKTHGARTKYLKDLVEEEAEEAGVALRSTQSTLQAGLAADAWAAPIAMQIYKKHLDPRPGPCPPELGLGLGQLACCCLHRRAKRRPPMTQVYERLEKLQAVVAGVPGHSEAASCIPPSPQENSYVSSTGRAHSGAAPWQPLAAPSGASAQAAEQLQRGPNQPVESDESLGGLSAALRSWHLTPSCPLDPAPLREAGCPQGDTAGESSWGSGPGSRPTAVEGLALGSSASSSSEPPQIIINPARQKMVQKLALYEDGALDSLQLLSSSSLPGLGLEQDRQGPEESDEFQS

[5] = molecular target: T2, IRAK4 (Homo sapiens, UniProt Q9NWZ3); assay: RBC HotSpot Kinase Assay, IRAK4; settings: IRAK4 IC50
T2 sequence (Q9NWZ3 1-460): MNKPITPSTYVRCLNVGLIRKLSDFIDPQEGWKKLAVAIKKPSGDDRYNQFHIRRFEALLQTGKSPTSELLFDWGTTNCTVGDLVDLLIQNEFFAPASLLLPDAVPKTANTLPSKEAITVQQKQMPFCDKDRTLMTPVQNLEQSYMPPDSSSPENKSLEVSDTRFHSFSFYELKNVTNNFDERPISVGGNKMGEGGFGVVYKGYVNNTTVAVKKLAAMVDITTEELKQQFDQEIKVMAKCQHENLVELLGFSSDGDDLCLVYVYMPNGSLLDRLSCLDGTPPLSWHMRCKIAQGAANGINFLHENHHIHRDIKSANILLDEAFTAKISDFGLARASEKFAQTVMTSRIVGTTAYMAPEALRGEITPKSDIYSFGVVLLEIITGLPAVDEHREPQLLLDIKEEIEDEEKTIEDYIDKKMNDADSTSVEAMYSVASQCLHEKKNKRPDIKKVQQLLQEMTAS

[6] = tested on: THP1 cells; assay: Combination drug screening, Cell Titer Glo, 10 × 10 matrix, THP1 cells; assay type: cell-based; settings: THP1 cells; for Excess HSA Score: 10 × 10
[7] = tested on: MOLM14(D835Y) cells; assay type: cell-based; settings: MOLM14(D835Y) cells; for Excess HSA Score: 10 × 10
[8] = Homo sapiens, MOLM-14, 48 h, 48 hours, Cell Titer Glo
[9] = combination with (+)-BAY-1251152
[10] = combination with Eprenetapopt/APR-246
[11] = combination with Venetoclax (ABT-199)

IC50 ([1]; Homo sapiens, MOLM-14, 48 h): 0.244 µM
IC50 [2, 8]: 0.77 µM
IC50 ([3]; FLT3 IC50): < 0.0005 µM
IC50 [4]: 0.024 µM
IC50 [5]: 0.009 µM
SMILES: F[C@H]1CNC[C@@H]1Nc1cncc(-c2cnc3cc(OC4CC4)ccn23)n1 [Compound 10, 6-(7-cyclopropoxyimidazo[1,2-a]pyridin-3-yl)-N-((3S,4S)-4-fluoropyrrolidin-3-yl)pyrazin-2-amine]

IC50 ([1]; Homo sapiens, MOLM-14, 48 h): 0.043 µM
IC50 [2, 8]: 0.061 µM
IC50 ([3]; FLT3 IC50): < 0.0005 µM
IC50 [4]: 0.005 µM
IC50 [5]: 0.001 µM
SMILES: COc1cc2ncc(-c3cncc(N[C@@H]4CCCNC4)n3)n2cc1C(C)(C)O [Compound 20, (R)-2-(7-methoxy-3-(6-(piperidin-3-ylamino)pyrazin-2-yl)imidazo[1,2-a]pyridin-6-yl)propan-2-ol]

IC50 [1]: 0.069 µM
IC50 ([2]; 48 hours, Cell Titer Glo): 0.686 µM
IC50 ([3]; read-out: FLT3 IC50): < 0.0005 µM
IC50 [4]: 0.005 µM
IC50 [5]: < 0.0005 µM
SMILES: CC(O)(c1cn2c(-c3ccnc(N[C@H]4CNC[C@@H]4F)n3)cnc2cn1)C(F)(F)F (single isomer, unassigned) [Compound 71]

IC50 ([1]; Homo sapiens, MOLM-14, 48 h): 0.077 µM
IC50 [2, 8]: 0.244 µM
IC50 ([3]; FLT3 IC50): < 0.0005 µM
IC50 [4]: 0.029 µM
IC50 [5]: 0.002 µM
SMILES: COc1ccn2c(-c3cncc(N[C@H]4CNC[C@@H]4F)n3)cnc2c1 [Compound 4, N-((3S,4S)-4-fluoropyrrolidin-3-yl)-6-(7-methoxyimidazo[1,2-a]pyridin-3-yl)pyrazin-2-amine]

IC50 ([1]; Homo sapiens, MOLM-14, 48 h): 0.137 µM
IC50 [2, 8]: 0.77 µM
IC50 ([3]; FLT3 IC50): < 0.0005 µM
IC50 [4]: 0.031 µM
IC50 [5]: 0.022 µM
SMILES: CC(O)(c1cn2c(-c3ccnc(N[C@@H]4CCCNC4)n3)cnc2cn1)C(F)(F)F (single isomer, unassigned) [Compound 67]

IC50 [1]: 0.686 µM
IC50 ([2]; 48 hours, Cell Titer Glo): 1.93 µM
IC50 ([3]; FLT3 IC50): 0.007 µM
IC50 [4]: 0.089 µM
IC50 [5]: 0.004 µM
SMILES: CC(O)(c1cn2c(-c3cncc(N[C@H]4CNC[C@@H]4F)n3)cnc2cn1)C(F)(F)F (single isomer, unassigned) [Compound 77]

IC50 ([1]; Homo sapiens, MOLM-14, 48 h): 0.069 µM
IC50 [2, 8]: 0.217 µM
IC50 ([3]; FLT3 IC50): < 0.0005 µM
IC50 [4]: 0.085 µM
IC50 [5]: 0.004 µM
SMILES: FC(F)COc1ccn2c(-c3cncc(N[C@H]4CNC[C@@H]4F)n3)cnc2c1 [Compound 7]

Further lines, the compound ahead of its results:

SMILES: CC(C)Oc1ccn2c(-c3nccc(N[C@@H]4CCCNC4)n3)cnc2c1 [Compound 53, (R)-2-(7-isopropoxyimidazo[1,2-a]pyridin-3-yl)-N-(piperidin-3-yl)pyrimidin-4-amine]
IC50 ([1]; Homo sapiens, MOLM-14, 48 h): 0.205 µM
IC50 [2, 8]: 2.17 µM
IC50 ([3]; FLT3 IC50): 0.002 µM
IC50 [4]: 1.94 µM
IC50 [5]: 0.06 µM

SMILES: O=C1CCCN1c1cn2c(-c3ccnc(N[C@H]4CNC[C@@H]4F)n3)cnc2cn1 [Compound 46, 1-(3-(2-(((3S,4S)-4-fluoropyrrolidin-3-yl)amino)pyrimidin-4-yl)imidazo[1,2-a]pyrazin-6-yl)pyrrolidin-2-one]
IC50 ([1]; Homo sapiens, MOLM-14, 48 h): 0.077 µM
IC50 [2, 8]: 1.37 µM
IC50 ([3]; FLT3 IC50): < 0.0005 µM
IC50 [4]: 0.064 µM
IC50 [5]: 0.012 µM

SMILES: c1cc(-c2cnc3cc(OC4CC4)ccn23)nc(N[C@@H]2CCCNC2)n1 [Compound 38, (R)-4-(7-cyclopropoxyimidazo [1,2-a]pyridin-3-yl)-N-(piperidin-3-yl)pyrimidin-2-amine]
IC50 ([1]; Homo sapiens, MOLM-14, 48 h): 0.022 µM
IC50 [2, 8]: 0.193 µM
IC50 ([3]; FLT3 IC50): < 0.0005 µM
IC50 [4]: 0.06 µM
IC50 [5]: 0.006 µM

SMILES: COc1ccn2c(-c3ccnc(N[C@H]4CNCC[C@@H]4F)n3)cnc2c1 [Compound 30, N-((3S,4S)-4-fluoropiperidin-3-yl)-4-(7-methoxyimidazo[1,2-a]pyridin-3-yl)pyrimidin-2-amine]
IC50 ([2]; Homo sapiens, MOLM-14, 48 h): 0.061 µM
Excess HSA Score [6, 9]: −655.1
Excess HSA Score ([6]; combination with AMG-232): −76.43
Excess HSA Score ([6]; combination with AZD-5363): −13.97
Excess HSA Score [6, 10]: 389.5
Excess HSA Score ([6]; combination with Ivosidenib): 59.9
Excess HSA Score ([6]; combination with Lenalidomide): −90.11
Excess HSA Score ([6]; combination with Palbociclib): −678.3
Excess HSA Score ([6]; combination with Prednisolone): 188.1
Excess HSA Score ([6]; combination with SNDX-5613): 1.322
Excess HSA Score ([6]; combination with TNO-155): 591.3
Excess HSA Score ([6]; combination with Trametinib): −203.6
Excess HSA Score ([6]; combination with Ulixertinib): −362.3
Excess HSA Score [6, 11]: −1632
Comments ([6]; combination with Ivosidenib): Antagonistic
Comments ([6]; combination with SNDX-5613): Additive
Comments [6, 11]: Synergistic
Excess HSA Score [7, 9]: −230
Excess HSA Score ([7]; combination with AMG-232): −524.3
Excess HSA Score ([7]; combination with AZD-5363): −738.1
Excess HSA Score [7, 10]: −284.6
Excess HSA Score ([7]; combination with Ivosidenib): −74.07
Excess HSA Score ([7]; combination with Lenalidomide): 299.3
Excess HSA Score ([7]; combination with Palbociclib): −448.3
Excess HSA Score ([7]; combination with Prednisolone): 3.447
Excess HSA Score ([7]; combination with SNDX-5613): −303.5
Excess HSA Score ([7]; combination with TNO-155): −922.2
Excess HSA Score ([7]; combination with Trametinib): −313.7
Excess HSA Score ([7]; combination with Ulixertinib): 14.83
Excess HSA Score [7, 11]: −1291
Comments ([7]; combination with Prednisolone): Antagonistic
Comments [7, 11]: Synergistic

SMILES: CC(C)Oc1ccn2c(-c3cncc(N[C@@H]4CCCNC4)n3)cnc2c1 [Compound 1, 6-(7-isopropoxyimidazo[1,2-a]pyridin-3-yl)-N-[(3R)-3-piperidyl]pyrazin-2-amine]
IC50 ([1]; Homo sapiens, MOLM-14, 48 h): 0.037 µM
IC50 [2, 8]: 0.073 µM
IC50 ([3]; FLT3 IC50): < 0.0005 µM
IC50 [4]: 0.111 µM
IC50 [5]: 0.002 µM

SMILES: COc1ccn2c(-c3ccnc(N[C@@H]4CCCNC4)n3)cnc2c1 [Compound 29, (R)-4-(7-methoxyimidazo[1,2-a]pyridin-3-yl)-N-(piperidin-3-yl)pyrimidin-2-amine]
IC50 ([1]; Homo sapiens, MOLM-14, 48 h): 0.012 µM
IC50 [2, 8]: 0.109 µM
IC50 ([3]; FLT3 IC50): < 0.0005 µM
IC50 [4]: 0.013 µM
IC50 [5]: < 0.0005 µM

SMILES: O=C1CCCN1c1cn2c(-c3ccnc(N[C@H]4CNCC[C@@H]4F)n3)cnc2cn1 [Compound 48, 1-(3-(2-(((3S,4S)-4-fluoropiperidin-3-yl)amino)pyrimidin-4-yl)imidazo[1,2-a]pyrazin-6-yl)pyrrolidin-2-one]
IC50 ([1]; Homo sapiens, MOLM-14, 48 h): 0.043 µM
IC50 [2, 8]: 0.273 µM
IC50 ([3]; FLT3 IC50): < 0.0005 µM
IC50 [4]: 0.097 µM
IC50 [5]: 0.018 µM

SMILES: FC(F)COc1ccn2c(-c3ccnc(N[C@@H]4CCCNC4)n3)cnc2c1 [Compound 32, (R)-4-(7-(2,2-difluoroethoxy)imidazo[1,2-a]pyridin-3-yl)-N-(piperidin-3-yl)pyrimidin-2-amine]
IC50 ([1]; Homo sapiens, MOLM-14, 48 h): 0.007 µM
IC50 [2, 8]: 0.077 µM
IC50 ([3]; FLT3 IC50): < 0.0005 µM
IC50 [4]: 0.045 µM
IC50 [5]: 0.002 µM

SMILES: FC(F)Oc1ccn2c(-c3ccnc(N[C@H]4CNCC[C@@H]4F)n3)cnc2c1 [Compound 36, 4-(7-(difluoromethoxy)imidazo[1,2-a]pyridin-3-yl)-N-((3S,4S)-4-fluoropiperidin-3-yl)pyrimidin-2-amine]
IC50 ([1]; Homo sapiens, MOLM-14, 48 h): 0.043 µM
IC50 [2, 8]: 0.307 µM
IC50 ([3]; FLT3 IC50): < 0.0005 µM
IC50 [4]: 0.017 µM
IC50 [5]: 0.003 µM

SMILES: FC(F)Oc1ccn2c(-c3ccnc(N[C@@H]4CCCNC4)n3)cnc2c1 [Compound 35, (R)-4-(7-(difluoromethoxy)imidazo[1,2-a]pyridin-3-yl)-N-(piperidin-3-yl)pyrimidin-2-amine]
IC50 ([1]; Homo sapiens, MOLM-14, 48 h): 0.039 µM
IC50 [2, 8]: 0.433 µM
IC50 ([3]; FLT3 IC50): < 0.0005 µM
IC50 [4]: 0.12 µM
IC50 [5]: 0.027 µM
